Assay results taken from patent US20220096486A1, “COMPOUNDS FOR USE IN THE TREATMENT OF ADCY5-RELATED DYSKINESIA” (ASSISTANCE PUBLIQUE - HOPITAUX DE PARIS, priority 2019, published 2022).
“Also recorded” adds a separate entry of the source.

Columns and labels:
[1] = test system: patient with ADCY5-related dyskinesia
Description: The patient is a child with the disorder. Pregnancy, birth and first acquisitions were unremarkable. They developed diurnal and nocturnal episodes of hyperkinetic involuntary movements involving the face and upper limbs, lasting from a few seconds to ten minutes. There was a clear kinesigenic trigger for some of the episodes, others were exercise-induced, and a few were spontaneous. In addition, they were described as clumsy, and had difficulties in various activities of daily living such as fine motor tasks or riding a bike. Frequency of the episodes was around 30 per day, causing significant disruption of activities. […] Interictal neurological examination was normal except for some fleeting choreodystonic movements. Because of the co-occurrence of several types of paroxysmal dyskinesia, the patient was first tested for mutations in the SLC2A1 and ADCY5 genes. Genetic analysis was negative for SLC2A1 but found a mosaic heterozygous mutation in the ADCY5 gene (c.2088+1G>A), previously reported as pathogenic (Carapito et al., A de novo ADCY5 mutation causes early-onset autosomal dominant chorea and dystonia. Mov Disord. 2015; 30(3):423-7).
Caffeine was the first treatment tried.

[2] = test system: A2AR knockout mice; conditions: cited from earlier work
[3] = test system: patients with ADCY5-related dyskinesia; assay: Seven patients treated with caffeine; dyskinesia episodes and self-rated improvement; assay type: in vivo, human; conditions: 150 to 800 mg of caffeine per day, all cases
Experimental: Currently, seven patients are treated with caffeine with similar results with uptakes varying from 150 to 800 mg of caffeine per day. […] Four of them were asked to rate the improvement brought by caffeine on their involuntary movements, on a scale of 0 (no improvement) to 100% (major improvement with total disappearance of symptoms). All four reported an improvement of 80 to 100%.

Cn1c(=O)c2c(ncn2C)n(C)c1=O [caffeine, 1,3,7-trimethylxanthine]
effect of resuming caffeine intake after four days of decaffeinated coffee ([1]; after unknowing switch to decaffeinated coffee with reversal to baseline): immediately restored the improvement
effect on diurnal and nocturnal episodes of dyskinesia ([1]; espresso in the morning, second espresso in the afternoon, half an espresso at bedtime, baseline around 30 episodes per day): next to complete resolution; also recorded: near-complete resolution
remaining short and non-disruptive episodes during the day ([1]; espresso morning, afternoon and half at bedtime, baseline around 30 episodes per day): at most one or two
start of dramatic response after intake ([1]; one espresso in the morning, approximately 100 mg of caffeine, child, c.2088+1G>A ADCY5 mutation): 45 min
wake-promoting effect [2]: abolished
effect on dyskinesia episodes [3]: reduction or a suppression of dyskinesia episodes
